{
  "source": "patent US12493040B2",
  "about": "“Cancer detection method using sense of smell of nematode” (HIROTSU BIO SCIENCE INC., priority 2013, dated 2025)",
  "tested_on": "RNAi-treated eri-1 (mg366) nematodes",
  "experiment": "RNAi screening of olfactory receptor genes: chemotaxis assay of RNAi-treated nematodes to odorants",
  "type": "in vivo, Caenorhabditis elegans",
  "settings": "low concentration of attractant",
  "procedure,_shortened": "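eri-1 (mg366) worms knocked down by feeding RNAi (Ahringer library) on IPTG/ampicillin NGM plates with E. coli for 4 days, then tested for chemotaxis, 30–50 worms per assay. Odorants at 1 μl of 10^−3 or 10^−4 dilution, or 1 and 5 μl undiluted. Hits scored by z score, thresholds ±1.96 (P<0.05) or ±0.96.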",
  "data": [
    {"smiles": "CCC(C)=O", "note": "[butanone]", "values": [
      {"measurement": "chemotaxis index", "setting": "Control nematodes", "value": "0.65 ± 0.021"},
      {"measurement": "chemotaxis index", "setting": "srh-10 RNAi-treated nematodes", "value": "−0.65"},
      {"measurement": "chemotaxis index", "setting": "srh-11 RNAi-treated nematodes", "value": "−0.15"},
      {"measurement": "chemotaxis index", "setting": "srh-15 RNAi-treated nematodes", "value": 0.55},
      {"measurement": "chemotaxis index", "setting": "srh-16 RNAi-treated nematodes", "value": 0.74},
      {"measurement": "chemotaxis index", "setting": "srh-18 RNAi-treated nematodes", "value": 0.52},
      {"measurement": "chemotaxis index", "setting": "srh-19 RNAi-treated nematodes", "value": 0.89},
      {"measurement": "chemotaxis index", "setting": "srh-22 RNAi-treated nematodes", "value": 0.19},
      {"measurement": "chemotaxis index", "setting": "srh-23 RNAi-treated nematodes", "value": 0.67},
      {"measurement": "chemotaxis index", "setting": "srh-24 RNAi-treated nematodes", "value": 0.59},
      {"measurement": "chemotaxis index", "setting": "srh-25 RNAi-treated nematodes", "value": 0.72},
      {"measurement": "chemotaxis index", "setting": "srh-27 RNAi-treated nematodes", "value": 0.63},
      {"measurement": "chemotaxis index", "setting": "srh-28 RNAi-treated nematodes", "value": 0.55},
      {"measurement": "chemotaxis index", "setting": "srh-36 RNAi-treated nematodes", "value": 0.37},
      {"measurement": "chemotaxis index", "setting": "srh-37 RNAi-treated nematodes", "value": 0.37},
      {"measurement": "chemotaxis index", "setting": "srh-39 RNAi-treated nematodes", "value": 0.48},
      {"measurement": "chemotaxis index", "setting": "srh-40 RNAi-treated nematodes", "value": 0.94},
      {"measurement": "chemotaxis index", "setting": "srh-41 RNAi-treated nematodes", "value": 0.64},
      {"measurement": "chemotaxis index", "setting": "srh-44 RNAi-treated nematodes", "value": 0.82},
      {"measurement": "chemotaxis index", "setting": "srh-45 RNAi-treated nematodes", "value": 0.73},
      {"measurement": "chemotaxis index", "setting": "srh-46 RNAi-treated nematodes", "value": 0.82},
      {"measurement": "chemotaxis index", "setting": "srh-48 RNAi-treated nematodes", "value": 0.55},
      {"measurement": "chemotaxis index", "setting": "srh-49 RNAi-treated nematodes", "value": 0.80},
      {"measurement": "chemotaxis index", "setting": "srh-50 RNAi-treated nematodes", "value": 0.87},
      {"measurement": "chemotaxis index", "setting": "srh-51 RNAi-treated nematodes", "value": 0.70},
      {"measurement": "chemotaxis index", "setting": "srh-52 RNAi-treated nematodes", "value": 0.69},
      {"measurement": "chemotaxis index", "setting": "srh-55 RNAi-treated nematodes", "value": 0.43},
      {"measurement": "chemotaxis index", "setting": "srh-59 RNAi-treated nematodes", "value": 0.51},
      {"measurement": "chemotaxis index", "setting": "srh-60 RNAi-treated nematodes", "value": 0.79},
      {"measurement": "chemotaxis index", "setting": "srh-61 RNAi-treated nematodes", "value": 0.74},
      {"measurement": "chemotaxis index", "setting": "srh-67 RNAi-treated nematodes", "value": 0.85},
      {"measurement": "chemotaxis index", "setting": "srh-68 RNAi-treated nematodes", "value": 0.67},
      {"measurement": "chemotaxis index", "setting": "srh-69 RNAi-treated nematodes", "value": 0.66},
      {"measurement": "chemotaxis index", "setting": "srh-70 RNAi-treated nematodes", "value": 0.43},
      {"measurement": "chemotaxis index", "setting": "srh-71 RNAi-treated nematodes", "value": 0.76},
      {"measurement": "chemotaxis index", "setting": "srh-72 RNAi-treated nematodes", "value": 0.58},
      {"measurement": "chemotaxis index", "setting": "srh-74 RNAi-treated nematodes", "value": 0.76},
      {"measurement": "chemotaxis index", "setting": "srh-75 RNAi-treated nematodes", "value": 0.76},
      {"measurement": "chemotaxis index", "setting": "srh-77 RNAi-treated nematodes", "value": 0.70},
      {"measurement": "chemotaxis index", "setting": "srh-79 RNAi-treated nematodes", "value": 0.58},
      {"measurement": "chemotaxis index", "setting": "srh-80 RNAi-treated nematodes", "value": 0.64},
      {"measurement": "chemotaxis index", "setting": "srh-82 RNAi-treated nematodes", "value": 0.79},
      {"measurement": "chemotaxis index", "setting": "srh-83 RNAi-treated nematodes", "value": 0.71},
      {"measurement": "chemotaxis index", "setting": "srh-97 RNAi-treated nematodes", "value": 0.80},
      {"measurement": "chemotaxis index", "setting": "srh-99 RNAi-treated nematodes", "value": 0.75},
      {"measurement": "chemotaxis index", "setting": "srh-100 RNAi-treated nematodes", "value": 0.80},
      {"measurement": "chemotaxis index", "setting": "srh-104 RNAi-treated nematodes", "value": 0.48},
      {"measurement": "chemotaxis index", "setting": "srh-105 RNAi-treated nematodes", "value": 0.76},
      {"measurement": "chemotaxis index", "setting": "srh-109 RNAi-treated nematodes", "value": 0.89},
      {"measurement": "chemotaxis index", "setting": "srh-111 RNAi-treated nematodes", "value": 0.59},
      {"measurement": "chemotaxis index", "setting": "srh-113 RNAi-treated nematodes", "value": 0.30},
      {"measurement": "chemotaxis index", "setting": "srh-115 RNAi-treated nematodes", "value": 0.70},
      {"measurement": "chemotaxis index", "setting": "srh-116 RNAi-treated nematodes", "value": 0.56},
      {"measurement": "chemotaxis index", "setting": "srh-118 RNAi-treated nematodes", "value": 0.60},
      {"measurement": "chemotaxis index", "setting": "srh-119 RNAi-treated nematodes", "value": 0.50},
      {"measurement": "chemotaxis index", "setting": "srh-120 RNAi-treated nematodes", "value": 0.78},
      {"measurement": "chemotaxis index", "setting": "srh-122 RNAi-treated nematodes", "value": 0.58},
      {"measurement": "chemotaxis index", "setting": "srh-123 RNAi-treated nematodes", "value": 0.84},
      {"measurement": "chemotaxis index", "setting": "srh-125 RNAi-treated nematodes", "value": 0.76},
      {"measurement": "chemotaxis index", "setting": "srh-128 RNAi-treated nematodes", "value": 0.69},
      {"measurement": "chemotaxis index", "setting": "srh-129 RNAi-treated nematodes", "value": 0.63},
      {"measurement": "chemotaxis index", "setting": "srh-130 RNAi-treated nematodes", "value": 0.82},
      {"measurement": "chemotaxis index", "setting": "srh-214 RNAi-treated nematodes", "value": 0.85},
      {"measurement": "chemotaxis index", "setting": "srh-216 RNAi-treated nematodes", "value": 0.86},
      {"measurement": "chemotaxis index", "setting": "srh-217 RNAi-treated nematodes", "value": 0.69},
      {"measurement": "chemotaxis index", "setting": "srh-220 RNAi-treated nematodes", "value": 0.81},
      {"measurement": "chemotaxis index", "setting": "srh-222 RNAi-treated nematodes", "value": 0.62},
      {"measurement": "chemotaxis index", "setting": "srh-223 RNAi-treated nematodes", "value": 0.88},
      {"measurement": "chemotaxis index", "setting": "srh-227 RNAi-treated nematodes", "value": 0.37},
      {"measurement": "chemotaxis index", "setting": "srh-229 RNAi-treated nematodes", "value": 0.60},
      {"measurement": "chemotaxis index", "setting": "srh-233 RNAi-treated nematodes", "value": 0.50},
      {"measurement": "chemotaxis index", "setting": "srh-235 RNAi-treated nematodes", "value": 0.76},
      {"measurement": "chemotaxis index", "setting": "srh-236 RNAi-treated nematodes", "value": 0.71},
      {"measurement": "chemotaxis index", "setting": "srh-239 RNAi-treated nematodes", "value": 0.59},
      {"measurement": "chemotaxis index", "setting": "srh-241 RNAi-treated nematodes", "value": 0.63},
      {"measurement": "chemotaxis index", "setting": "srh-243 RNAi-treated nematodes", "value": 0.72},
      {"measurement": "chemotaxis index", "setting": "srh-244 RNAi-treated nematodes", "value": 0.73},
      {"measurement": "chemotaxis index", "setting": "srh-247 RNAi-treated nematodes", "value": 0.85},
      {"measurement": "chemotaxis index", "setting": "srh-250 RNAi-treated nematodes", "value": 0.79},
      {"measurement": "chemotaxis index", "setting": "srh-251 RNAi-treated nematodes", "value": 0.92},
      {"measurement": "chemotaxis index", "setting": "srh-252 RNAi-treated nematodes", "value": 0.86},
      {"measurement": "chemotaxis index", "setting": "srh-258 RNAi-treated nematodes", "value": 0.56},
      {"measurement": "chemotaxis index", "setting": "srh-261 RNAi-treated nematodes", "value": 0.60},
      {"measurement": "chemotaxis index", "setting": "srh-264 RNAi-treated nematodes", "value": 0.56},
      {"measurement": "chemotaxis index", "setting": "srh-266 RNAi-treated nematodes", "value": "−0.31"},
      {"measurement": "chemotaxis index", "setting": "srh-274 RNAi-treated nematodes", "value": "−0.59"},
      {"measurement": "chemotaxis index", "setting": "srh-275 RNAi-treated nematodes", "value": "−0.29"},
      {"measurement": "chemotaxis index", "setting": "srh-276 RNAi-treated nematodes", "value": 0.30},
      {"measurement": "chemotaxis index", "setting": "srh-277 RNAi-treated nematodes", "value": "−0.09"},
      {"measurement": "chemotaxis index", "setting": "srh-279 RNAi-treated nematodes", "value": 0.89},
      {"measurement": "chemotaxis index", "setting": "srh-281 RNAi-treated nematodes", "value": 0.49},
      {"measurement": "chemotaxis index", "setting": "srh-282 RNAi-treated nematodes", "value": 0.80},
      {"measurement": "chemotaxis index", "setting": "srh-283 RNAi-treated nematodes", "value": 0.65},
      {"measurement": "chemotaxis index", "setting": "srh-284 RNAi-treated nematodes", "value": 0.73},
      {"measurement": "chemotaxis index", "setting": "srh-291 RNAi-treated nematodes", "value": 0.86},
      {"measurement": "chemotaxis index", "setting": "srh-292 RNAi-treated nematodes", "value": 0.80},
      {"measurement": "chemotaxis index", "setting": "srh-293 RNAi-treated nematodes", "value": 0.75},
      {"measurement": "chemotaxis index", "setting": "srh-297 RNAi-treated nematodes", "value": 0.84},
      {"measurement": "chemotaxis index", "setting": "srh-298 RNAi-treated nematodes", "value": 0.65},
      {"measurement": "chemotaxis index", "setting": "srh-308 RNAi-treated nematodes", "value": 0.04}
    ]}
  ]
}
